This is an account of results in paper PMC5218480 (PLoS ONE, 2017).

For this experiment, the system named is MV-4-11 cells. The experiment can be described thus: Gene expression microarray analysis (Affymetrix PrimeView) and GSEA. The experiment is classed as cell-based, human. More on the design: RFU PODN (11730768_x_at) / Fold change /veh PODN (11730768_x_at) / RFU LINC00158 (11744669_a_at) / Fold change /veh LINC00158 (11744669_a_at) / RFU DUSP10 (11751237_a_at) / Fold change /veh DUSP10 (11751237_a_at) / RFU ID3 (11757404_x_at) / Fold change /veh ID3 (11757404_x_at) / RFU PLEKHG5 (11737974_s_at) / Fold change /veh PLEKHG5 (11737974_s_at) / RFU LRRC4B (11730491_at) / Fold change /veh LRRC4B (11730491_at) / RFU GIMAP4 (11747438_a_at) / Fold change /veh GIMAP4 (11747438_a_at) / RFU KRT8 (11758183_x_at) / Fold change /veh KRT8 (11758183_x_at) / RFU CNN1 (11734310_a_at) / Fold change /veh CNN1 (11734310_a_at) / RFU VPS37D (11726825_at) / Fold change /veh VPS37D (11726825_at) / RFU C10orf10 (11716522_x_at) / Fold change /veh C10orf10 (11716522_x_at) / RFU KIR2DL2 /// KIR2DL4 /// KIR2DL5A /// KIR2DL5B /// KIR2DS1 /// KIR2DS2 /// KIR2DS3 /// KIR2DS4 /// KIR3DL3 /// KIR3DL3 /// KIR3DS1 (11738374_at) / Fold change /veh KIR2DL2 /// KIR2DL4 /// KIR2DL5A /// KIR2DL5B /// KIR2DS1 /// KIR2DS2 /// KIR2DS3 /// KIR2DS4 /// KIR3DL3 /// KIR3DL3 /// KIR3DS1 (11738374_at) / RFU C1QL1 (11718748_at) / Fold change /veh C1QL1 (11718748_at) / RFU TMPRSS4 (11747572_a_at) / Fold change /veh TMPRSS4 (11747572_a_at) / RFU HAMP (11756126_x_at) / Fold change /veh HAMP (11756126_x_at) / RFU RNFT2 (11725882_a_at) / Fold change /veh RNFT2 (11725882_a_at) / RFU NR4A2 (11747474_a_at) / Fold change /veh NR4A2 (11747474_a_at) / RFU ABCC12 (11746883_a_at) / Fold change /veh ABCC12 (11746883_a_at) / RFU TMEM136 (11760407_x_at) / Fold change /veh TMEM136 (11760407_x_at) / RFU CLDN22 /// WWC2 (11732394_at) / Fold change /veh CLDN22 /// WWC2 (11732394_at) / RFU HLA-DPB1 (11760878_x_at) / Fold change /veh HLA-DPB1 (11760878_x_at) / RFU SPINT1 (11716480_a_at) / Fold change /veh SPINT1 (11716480_a_at) / RFU GAP43 (11754022_s_at) / Fold change /veh GAP43 (11754022_s_at) / RFU A4GNT (11735810_at) / Fold change /veh A4GNT (11735810_at) / RFU PRB3 (11715151_x_at) / Fold change /veh PRB3 (11715151_x_at) / RFU TUBB4B (11761932_at) / Fold change /veh TUBB4B (11761932_at) / RFU CAPN14 (11732068_a_at) / Fold change /veh CAPN14 (11732068_a_at) / RFU TMCC2 (11721928_a_at) / Fold change /veh TMCC2 (11721928_a_at) / RFU IRGQ (11745062_a_at) / Fold change /veh IRGQ (11745062_a_at) / RFU FAM174B (11720279_a_at) / Fold change /veh FAM174B (11720279_a_at) / RFU TMPRSS4 (11748680_a_at) / Fold change /veh TMPRSS4 (11748680_a_at) / RFU FAM212B (11763350_a_at) / Fold change /veh FAM212B (11763350_a_at) / RFU PLEKHG5 (11743358_a_at) / Fold change /veh PLEKHG5 (11743358_a_at) / RFU ZSCAN30 (11745921_a_at) / Fold change /veh ZSCAN30 (11745921_a_at) / RFU CMKLR1 (11741424_a_at) / Fold change /veh CMKLR1 (11741424_a_at) / RFU LOC101060620 /// MAPK8IP1 (11723275_at) / Fold change /veh LOC101060620 /// MAPK8IP1 (11723275_at) / RFU SPTSSB (11747773_x_at) / Fold change /veh SPTSSB (11747773_x_at) / RFU PRSS12 (11739890_at) / Fold change /veh PRSS12 (11739890_at) / RFU BIN1 (11741810_x_at) / Fold change /veh BIN1 (11741810_x_at) / RFU WNT11 (11732464_a_at) / Fold change /veh WNT11 (11732464_a_at) / RFU C10orf10 (11716521_a_at) / Fold change /veh C10orf10 (11716521_a_at) / RFU C5orf56 (11738089_at) / Fold change /veh C5orf56 (11738089_at) / RFU CYB561 (11721691_x_at) / Fold change /veh CYB561 (11721691_x_at) / RFU ANKRD19P (11752326_a_at) / Fold change /veh ANKRD19P (11752326_a_at) / RFU OR2T12 /// OR2T33 /// OR2T8 (11738714_s_at) / Fold change /veh OR2T12 /// OR2T33 /// OR2T8 (11738714_s_at) / RFU VCAN (11748164_a_at) / Fold change /veh VCAN (11748164_a_at) / RFU JSRP1 (11732532_at) / Fold change /veh JSRP1 (11732532_at) / RFU KRTAP10-11 (11738290_x_at) / Fold change /veh KRTAP10-11 (11738290_x_at) / RFU MYO3A (11730013_a_at) / Fold change /veh MYO3A (11730013_a_at) / RFU EBF3 (11725865_a_at) / Fold change /veh EBF3 (11725865_a_at) / RFU CAMK2N1 (11719241_x_at) / Fold change /veh CAMK2N1 (11719241_x_at) / RFU C5orf56 (11738088_a_at) / Fold change /veh C5orf56 (11738088_a_at) / RFU OLFML3 (11715873_a_at) / Fold change /veh OLFML3 (11715873_a_at) / RFU LOC100653217 /// NTM (11731650_a_at) / Fold change /veh LOC100653217 /// NTM (11731650_a_at) / RFU MAPK11 (11762145_a_at) / Fold change /veh MAPK11 (11762145_a_at) / RFU FIZ1 (11724087_x_at) / Fold change /veh FIZ1 (11724087_x_at) / RFU OASL (11726364_x_at) / Fold change /veh OASL (11726364_x_at) / RFU SOX15 (11748057_x_at) / Fold change /veh SOX15 (11748057_x_at) / RFU CD79A (11719716_a_at) / Fold change /veh CD79A (11719716_a_at) / RFU HIST1H1D (11736915_at) / Fold change /veh HIST1H1D (11736915_at) / RFU CASKIN2 (11723855_a_at) / Fold change /veh CASKIN2 (11723855_a_at) / RFU LOC730098 (11760151_x_at) / Fold change /veh LOC730098 (11760151_x_at) / RFU OR4N2 (11742367_at) / Fold change /veh OR4N2 (11742367_at) / RFU PRRT2 (11749266_a_at) / Fold change /veh PRRT2 (11749266_a_at) / RFU SNX32 (11753110_a_at) / Fold change /veh SNX32 (11753110_a_at) / RFU CDHR5 (11726645_a_at) / Fold change /veh CDHR5 (11726645_a_at) / RFU RCAN1 (11760418_a_at) / Fold change /veh RCAN1 (11760418_a_at) / RFU FAM167A (11723789_a_at) / Fold change /veh FAM167A (11723789_a_at) / RFU FAM26E (11764081_at) / Fold change /veh FAM26E (11764081_at) / RFU ISYNA1 (11749810_s_at) / Fold change /veh ISYNA1 (11749810_s_at) / RFU ACY1 (11761880_at) / Fold change /veh ACY1 (11761880_at) / RFU 11764098_at / Fold change /veh 11764098_at / RFU SAMD14 (11745864_x_at) / Fold change /veh SAMD14 (11745864_x_at) / RFU NPB (11741838_a_at) / Fold change /veh NPB (11741838_a_at) / RFU TMPRSS6 (11731388_a_at) / Fold change /veh TMPRSS6 (11731388_a_at) / RFU KRTAP10-2 (11738614_at) / Fold change /veh KRTAP10-2 (11738614_at) / RFU ARHGAP8 /// PRR5-ARHGAP8 (11727945_x_at) / Fold change /veh ARHGAP8 /// PRR5-ARHGAP8 (11727945_x_at) / RFU KRTAP5-7 /// NADSYN1 (11734609_at) / Fold change /veh KRTAP5-7 /// NADSYN1 (11734609_at) / RFU RASL12 (11751679_a_at) / Fold change /veh RASL12 (11751679_a_at) / RFU CDKN2B (11736163_a_at) / Fold change /veh CDKN2B (11736163_a_at) / RFU PRF1 (11729649_at) / Fold change /veh PRF1 (11729649_at) / RFU, ZNF638 /// ZNF638-IT1 / Fold change vs veh, ZNF638 /// ZNF638-IT1 / RFU, PANK3 / Fold change vs veh, PANK3 / RFU, SH3YL1 / Fold change vs veh, SH3YL1 / RFU, ZEB2 / Fold change vs veh, ZEB2 / RFU, NRIP1 / Fold change vs veh, NRIP1 / RFU, PTTG1IP / Fold change vs veh, PTTG1IP / RFU, CAPN2 / Fold change vs veh, CAPN2 / RFU, MED14 / Fold change vs veh, MED14 / RFU, SNORA58 / Fold change vs veh, SNORA58 / RFU, C1orf63 / Fold change vs veh, C1orf63 / RFU, LRRFIP1 / Fold change vs veh, LRRFIP1 / RFU, NDUFAF7 / Fold change vs veh, NDUFAF7 / RFU, SLC12A2 / Fold change vs veh, SLC12A2 / RFU, IBTK / Fold change vs veh, IBTK / RFU, ESF1 / Fold change vs veh, ESF1 / Fold change vs veh, TMEM50B / RFU, TAOK1 / Fold change vs veh, TAOK1 / RFU, ACBD3 / Fold change vs veh, ACBD3 / RFU, TMA16 / Fold change vs veh, TMA16 / RFU, RWDD3 / Fold change vs veh, RWDD3 / RFU, BCAT1 / Fold change vs veh, BCAT1 / RFU, EDEM3 / Fold change vs veh, EDEM3 / RFU, TMEM33 / Fold change vs veh, TMEM33 / RFU, WDR75 / Fold change vs veh, WDR75 / RFU, AHCTF1 / Fold change vs veh, AHCTF1 / RFU, TFRC / Fold change vs veh, TFRC / RFU, ZDHHC17 / Fold change vs veh, ZDHHC17 / RFU, NOM1 / Fold change vs veh, NOM1 / RFU, ARL8B / Fold change vs veh, ARL8B / RFU, ZBTB11 / Fold change vs veh, ZBTB11 / RFU, TAMM41 / Fold change vs veh, TAMM41 / RFU, KIAA1704 /// LOC100996395 / Fold change vs veh, KIAA1704 /// LOC100996395 / RFU, ING1 / Fold change vs veh, ING1 / RFU, TRMT61B / Fold change vs veh, TRMT61B / RFU, FUBP3 / Fold change vs veh, FUBP3 / RFU, TP53 / Fold change vs veh, TP53 / RFU, TNKS2 / Fold change vs veh, TNKS2 / RFU, ZFP14 / Fold change vs veh, ZFP14 / RFU, ACTR2 / Fold change vs veh, ACTR2 / RFU, PPP3R1 / Fold change vs veh, PPP3R1 / RFU, PIK3R1 / Fold change vs veh, PIK3R1 / RFU, HNRNPA1 / Fold change vs veh, HNRNPA1 / RFU, RNF170 / Fold change vs veh, RNF170 / RFU, ZNF28 / Fold change vs veh, ZNF28 / RFU, RNGTT / Fold change vs veh, RNGTT / RFU, OGT / Fold change vs veh, OGT / RFU, BRD1 / Fold change vs veh, BRD1 / RFU, MARS / Fold change vs veh, MARS / RFU, ZNF655 / Fold change vs veh, ZNF655 / RFU, FAHD1 / Fold change vs veh, FAHD1 / RFU, BDP1 / Fold change vs veh, BDP1 / RFU, LRRCC1 / Fold change vs veh, LRRCC1 / RFU, ARID1A / Fold change vs veh, ARID1A / RFU, ZNF146 / Fold change vs veh, ZNF146 / RFU, ZNF330 / Fold change vs veh, ZNF330 / RFU, GPN3 / Fold change vs veh, GPN3 / RFU, C9orf123 / Fold change vs veh, C9orf123 / RFU, N4BP2L2 / Fold change vs veh, N4BP2L2 / RFU, ARFIP1 / Fold change vs veh, ARFIP1 / RFU, FAM179B / Fold change vs veh, FAM179B / RFU, BCL10 / Fold change vs veh, BCL10 / RFU, UHRF1BP1L / Fold change vs veh, UHRF1BP1L / RFU, BET1 / Fold change vs veh, BET1 / RFU, CNOT2 / Fold change vs veh, CNOT2 / RFU, ZNF268 / Fold change vs veh, ZNF268 / Fold change vs veh, ZNF507 / RFU, DGCR2 / Fold change vs veh, DGCR2 / RFU, WDSUB1 / Fold change vs veh, WDSUB1 / Fold change vs veh, HSP90B1 /// MIR3652 / RFU, ADSS / Fold change vs veh, ADSS / RFU, GK / Fold change vs veh, GK / RFU, ZNF148 / Fold change vs veh, ZNF148 / RFU, TAF9 / Fold change vs veh, TAF9 / RFU, SLC1A5 / Fold change vs veh, SLC1A5 / RFU, SLMO2 / Fold change vs veh, SLMO2 / RFU, ABCC4 / Fold change vs veh, ABCC4 / RFU, LOC101060439 /// RAP1B / Fold change vs veh, LOC101060439 /// RAP1B / RFU, RFX7 / Fold change vs veh, RFX7 / RFU, GTPBP10 / Fold change vs veh, GTPBP10 / RFU, CNEP1R1 / Fold change vs veh, CNEP1R1 / RFU, BIVM-ERCC5 /// ERCC5 / Fold change vs veh, BIVM-ERCC5 /// ERCC5 / RFU, ILF3 / Fold change vs veh, ILF3 / RFU 11762660_at / Fold change /veh 11762660_at / RFU VCAN (11757783_s_at) / Fold change /veh VCAN (11757783_s_at) / RFU DDX43 (11728927_at) / Fold change /veh DDX43 (11728927_at) / RFU KRT8 (11758188_x_at) / Fold change /veh KRT8 (11758188_x_at) / RFU NKD1 (11759106_at) / Fold change /veh NKD1 (11759106_at) / RFU SRD5A1 (11742802_a_at) / Fold change /veh SRD5A1 (11742802_a_at) / RFU TPSAB1 /// TPSB2 (11721975_s_at) / Fold change /veh TPSAB1 /// TPSB2 (11721975_s_at) / RFU GSTM3 (11746129_a_at) / Fold change /veh GSTM3 (11746129_a_at) / RFU IL23R (11737362_x_at) / Fold change /veh IL23R (11737362_x_at) / RFU TMEM51 (11727254_a_at) / Fold change /veh TMEM51 (11727254_a_at) / RFU PIWIL2 (11732686_x_at) / Fold change /veh PIWIL2 (11732686_x_at) / RFU ORM1 (11744905_x_at) / Fold change /veh ORM1 (11744905_x_at) / RFU CCDC152 (11743942_at) / Fold change /veh CCDC152 (11743942_at) / RFU ECM1 (11717891_a_at) / Fold change /veh ECM1 (11717891_a_at) / RFU IL23R (11748794_a_at) / Fold change /veh IL23R (11748794_a_at) / RFU TNFAIP8L3 (11732012_x_at) / Fold change /veh TNFAIP8L3 (11732012_x_at) / RFU MBOAT4 (11741988_at) / Fold change /veh MBOAT4 (11741988_at) / RFU 11764193_at / Fold change /veh 11764193_at / RFU TMEM53 (11763286_at) / Fold change /veh TMEM53 (11763286_at) / RFU MAGEB2 (11727129_at) / Fold change /veh MAGEB2 (11727129_at) / RFU TMEM200A (11744735_a_at) / Fold change /veh TMEM200A (11744735_a_at) / RFU CCDC152 (11751479_a_at) / Fold change /veh CCDC152 (11751479_a_at) / RFU FAM211A (11726209_a_at) / Fold change /veh FAM211A (11726209_a_at) / RFU RGS16 (11746705_a_at) / Fold change /veh RGS16 (11746705_a_at) / RFU VCAN (11755009_s_at) / Fold change /veh VCAN (11755009_s_at) / RFU RHOB (11743442_s_at) / Fold change /veh RHOB (11743442_s_at) / RFU RGS16 (11720943_a_at) / Fold change /veh RGS16 (11720943_a_at) / RFU RGS16 (11720944_at) / Fold change /veh RGS16 (11720944_at) / RFU, VPS4B / Fold change vs veh, VPS4B / RFU, CREB1 / Fold change vs veh, CREB1 / RFU, DNAJC13 / Fold change vs veh, DNAJC13 / RFU, GNAQ / Fold change vs veh, GNAQ / RFU, CDK5R1 / Fold change vs veh, CDK5R1 / RFU, ZRANB3 / Fold change vs veh, ZRANB3 / RFU, CUL4A / Fold change vs veh, CUL4A / RFU, CCNY / Fold change vs veh, CCNY / RFU, UFL1 / Fold change vs veh, UFL1 / RFU, COG3 / Fold change vs veh, COG3 / RFU, DIAPH2 / Fold change vs veh, DIAPH2 / RFU, SKA2 / Fold change vs veh, SKA2 / RFU, AFF3 / Fold change vs veh, AFF3 / RFU, LMF1 / Fold change vs veh, LMF1 / RFU, IPO11 / Fold change vs veh, IPO11 / RFU, DFFB / Fold change vs veh, DFFB / RFU, FOXP1 / Fold change vs veh, FOXP1 / RFU, CARD8 / Fold change vs veh, CARD8 / RFU, STRN3 / Fold change vs veh, STRN3 / RFU, ADK / Fold change vs veh, ADK / RFU, RASSF2 / Fold change vs veh, RASSF2 / RFU, WIPF1 / Fold change vs veh, WIPF1 / RFU, LARP1B / Fold change vs veh, LARP1B / RFU, RASA1 / Fold change vs veh, RASA1 / RFU, RB1 / Fold change vs veh, RB1 / RFU, PPFIA1 / Fold change vs veh, PPFIA1 / RFU, MAT2A / Fold change vs veh, MAT2A / RFU, CCT5 / Fold change vs veh, CCT5 / RFU, WDR92 / Fold change vs veh, WDR92 / RFU, CUX1 / Fold change vs veh, CUX1 / RFU, TTC7A / Fold change vs veh, TTC7A / RFU, TMEM135 / Fold change vs veh, TMEM135 / RFU, DEPTOR / Fold change vs veh, DEPTOR / RFU, CPM / Fold change vs veh, CPM / RFU, DNAJB6 / Fold change vs veh, DNAJB6 / RFU, CACNA2D3 / Fold change vs veh, CACNA2D3 / RFU, DTX4 / Fold change vs veh, DTX4 / RFU, TFCP2 / Fold change vs veh, TFCP2 / RFU, GMCL1 /// GMCL1P1 / Fold change vs veh, GMCL1 /// GMCL1P1 / RFU, AEBP2 / Fold change vs veh, AEBP2 / RFU, SNHG1 /// SNORD22 /// SNORD25 /// SNORD26 /// SNORD27 /// SNORD28 /// SNORD29 /// SNORD31 / Fold change vs veh, SNHG1 /// SNORD22 /// SNORD25 /// SNORD26 /// SNORD27 /// SNORD28 /// SNORD29 /// SNORD31 / Fold change (Aza/veh), C12orf56 (ProbeSet 11735607_a_at) / Fold change (ACY-1035/veh), C12orf56 (ProbeSet 11735607_a_at) / Fold change (Aza/veh), FGFR1OP (ProbeSet 11751329_s_at) / Fold change (ACY-1035/veh), FGFR1OP (ProbeSet 11751329_s_at) / Fold change (Aza/veh), VPS36 (ProbeSet 11739960_a_at) / Fold change (ACY-1035/veh), VPS36 (ProbeSet 11739960_a_at) / RFU SYPL1 (11715823_x_at) / Fold change /veh SYPL1 (11715823_x_at) / RFU IGFBP7 (11715501_s_at) / Fold change /veh IGFBP7 (11715501_s_at) / RFU REEP3 (11722064_at) / Fold change /veh REEP3 (11722064_at) / RFU IGLL1 (11728026_x_at) / Fold change /veh IGLL1 (11728026_x_at): dose or concentration left out as unconfirmed. As to conditions: MV-4-11 cells, 48 hours.

In the case of `Nc1ncn([C@@H]2O[C@H](CO)[C@@H](O)[C@H]2O)c(=O)n1` [azacitidine], the “RFU 11764098_at” value stood at 18.12 RFU.
